Data as given in patent US12233036B2, “Inhibitors of autophagy and DCAR-1 as novel anthelmintic agents” (FLORIDA ATLANTIC UNIVERSITY BOARD OF TRUSTEES, priority 2019, dated 2025).

Tested on: wild type C. elegans
Test: Pheromone-induced dauer formation in wild type C. elegans in the presence of DHCA
Type: in vivo
Settings: wild type (N2) C. elegans treated by pheromone, pheromone alone around 20% dauer
Method: FIG. 5 is a bar graph showing that dihydrocaffeic acid (DHCA) is the ligand for DCAR-1 GPCR. DHCA is the food signal that competes with the dauer-inducing pheromone to suppress dauer formation. (*P<0.01, t-test, N2 treated with 0 nM DHCA compared to N2 treated with 25 nM DHCA and N2 treated with 25 nM DHCA compared to N2 treated with 100 nM DHCA. ns, no statistical significant difference.) Recovery of dauer larvae requires the presence of food. G protein-coupled receptors (GPCRs) detect molecules such as food odors and activate internal signal transduction pathways. We identified a GPCR, DCAR-1, which is involved in detection of food signals in C. elegans. […] The recovery percentage of daf-2 and daf-7 mutant dauer larvae decreased by 25% when dcar-1 is mutated. Dihydrocaffeic acid (DHCA) is the ligand for DCAR-1. […] When wild type C. elegans was treated by pheromone, around 20% of animals entered dauer. However, in the presence of 25 nM DHCA, the percentage of dauer was decreased to 5%. […] Thus, DCAR-1 inhibitors act to block detection of foods signals by infective nematode parasites and to suppress the growth of parasites to adults.

O=C(O)CCc1ccc(O)c(O)c1 [DHCA, Dihydrocaffeic acid]
percentage of dauer (25 nM DHCA): 5%
percentage of dauer (100 nM DHCA): none of animals formed dauer
